According to US20150315188A1, “COMPOUNDS AND METHODS FOR TREATMENT OF HYPERTENSION” (MEDIVATION TECHNOLOGIES, INC., priority 2012, published 2015):

Key:
Parameters in all cases: purchased Milipore (Millipore)
[1] = molecular target: T1, Human adrenergic α2B receptor (Homo sapiens, UniProt P18089); experiment: Radioligand binding, adrenergic α2B (Protocol Group B); conditions: Protocol Group B; for Percentage inhibition of ligand binding, Adrenergic α2B (10 nM) / inhibition at 0.01 µM: 10 nM compound; for Percentage inhibition of ligand binding, Adrenergic α2B (10 nM): 0.01 µM; for Percentage inhibition of ligand binding, Adrenergic α2B (30 nM) / inhibition at 0.03 µM: 30 nM compound; for Percentage inhibition of ligand binding, Adrenergic α2B (30 nM): 0.03 µM; for Percentage inhibition of ligand binding, Adrenergic α2B (0.1 μM) / inhibition at 0.1 µM: 0.1 μM compound; for inhibition at 0.01 µM: read-out: Percentage inhibition of ligand binding, Adrenergic α2B (10 nM); for inhibition at 0.03 µM: read-out: Percentage inhibition of ligand binding, Adrenergic α2B (30 nM); for inhibition at 0.1 µM: read-out: Percentage inhibition of ligand binding, Adrenergic α2B (0.1 μM)
T1 sequence (P18089 1-450): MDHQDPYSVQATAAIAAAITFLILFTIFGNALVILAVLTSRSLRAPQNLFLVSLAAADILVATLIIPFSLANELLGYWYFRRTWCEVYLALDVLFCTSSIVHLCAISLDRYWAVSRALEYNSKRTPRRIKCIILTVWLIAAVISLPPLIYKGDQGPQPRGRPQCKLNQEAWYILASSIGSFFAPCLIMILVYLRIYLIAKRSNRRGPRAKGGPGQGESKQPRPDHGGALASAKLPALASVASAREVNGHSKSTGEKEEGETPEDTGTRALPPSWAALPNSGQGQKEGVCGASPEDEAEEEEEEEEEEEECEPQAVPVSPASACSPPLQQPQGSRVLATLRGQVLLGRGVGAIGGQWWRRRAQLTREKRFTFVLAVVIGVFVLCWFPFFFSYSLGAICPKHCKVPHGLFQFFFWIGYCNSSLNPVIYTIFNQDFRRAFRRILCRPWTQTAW
How it was run: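 Recombinant human α2B receptor membranes incubated with compounds in 50 mM Tris-HCl pH 7.4, 5 mM MgCl2, 1 mM CaCl2, 0.2% BSA, 1% DMSO vehicle. Non-specific binding defined with 10 μM rauwolscine. Values are percent inhibition of specific binding or estimated Ki.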

[2] = molecular target: T2, Human adrenergic α2A receptor (Homo sapiens, UniProt P08913); experiment: Radioligand binding, adrenergic α2A (Protocol Group B); conditions: Protocol Group B; for Percentage inhibition of ligand binding, Adrenergic α2A (0.1 μM) / inhibition at 0.1 µM: 0.1 μM compound; for Percentage inhibition of ligand binding, Adrenergic α2A (0.3 μM) / inhibition at 0.3 µM: 0.3 μM compound; for inhibition at 0.1 µM: read-out: Percentage inhibition of ligand binding, Adrenergic α2A (0.1 μM); for inhibition at 0.3 µM: read-out: Percentage inhibition of ligand binding, Adrenergic α2A (0.3 μM)
T2 sequence (P08913 1-465): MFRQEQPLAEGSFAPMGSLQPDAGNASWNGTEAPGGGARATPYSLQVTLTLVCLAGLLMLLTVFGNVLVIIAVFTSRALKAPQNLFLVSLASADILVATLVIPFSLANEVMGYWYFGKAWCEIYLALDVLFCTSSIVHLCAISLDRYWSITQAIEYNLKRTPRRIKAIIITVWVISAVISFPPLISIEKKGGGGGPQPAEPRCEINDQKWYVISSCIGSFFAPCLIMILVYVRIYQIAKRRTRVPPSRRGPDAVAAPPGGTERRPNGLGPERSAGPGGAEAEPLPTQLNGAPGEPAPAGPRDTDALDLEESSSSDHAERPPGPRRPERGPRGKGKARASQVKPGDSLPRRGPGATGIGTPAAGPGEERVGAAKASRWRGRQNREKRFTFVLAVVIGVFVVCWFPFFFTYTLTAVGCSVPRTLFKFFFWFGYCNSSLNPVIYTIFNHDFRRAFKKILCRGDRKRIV
How it was run: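 Membranes from recombinant cells expressing the receptor, in 50 mM Tris-HCl pH 7.4 with 5 mM MgCl2, 1 mM CaCl2, 0.2% BSA; compounds incubated with 2 nM [^3H]MK-912 for 60 min at 25° C. Nonspecific binding defined by 10 μM rauwolscine; filtration, counting; percent inhibition of specific binding, or estimated Ki.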

[3] = molecular target: T3, Human adrenergic α1B receptor (Homo sapiens, UniProt P35368); experiment: Radioligand binding, adrenergic α1B (Protocol Group B); conditions: Protocol Group B; for Percentage inhibition of ligand binding, Adrenergic α1B (0.1 μM) / inhibition at 0.1 µM: 0.1 μM compound; for Percentage inhibition of ligand binding, Adrenergic α1B (0.3 μM) / inhibition at 0.3 µM: 0.3 μM compound; for inhibition at 0.1 µM: read-out: Percentage inhibition of ligand binding, Adrenergic α1B (0.1 μM); for inhibition at 0.3 µM: read-out: Percentage inhibition of ligand binding, Adrenergic α1B (0.3 μM)
T3 sequence (P35368 1-520): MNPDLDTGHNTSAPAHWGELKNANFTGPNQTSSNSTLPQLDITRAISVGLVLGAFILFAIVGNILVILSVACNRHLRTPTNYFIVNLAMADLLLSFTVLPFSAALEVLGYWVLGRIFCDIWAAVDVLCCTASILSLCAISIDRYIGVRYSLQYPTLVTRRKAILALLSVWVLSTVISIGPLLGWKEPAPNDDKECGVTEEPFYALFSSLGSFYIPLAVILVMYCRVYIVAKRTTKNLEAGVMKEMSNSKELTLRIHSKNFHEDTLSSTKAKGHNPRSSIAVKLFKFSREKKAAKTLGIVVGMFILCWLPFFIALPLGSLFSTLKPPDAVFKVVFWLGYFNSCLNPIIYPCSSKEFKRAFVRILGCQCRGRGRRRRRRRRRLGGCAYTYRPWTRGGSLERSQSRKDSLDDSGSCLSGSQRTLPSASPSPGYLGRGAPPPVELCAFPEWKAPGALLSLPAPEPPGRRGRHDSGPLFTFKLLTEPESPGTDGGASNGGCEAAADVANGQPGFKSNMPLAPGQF
How it was run: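 Recombinant human α1B membranes incubated with test compound and 0.3 nM [3H]prazosin, 60 min at 25 °C, in 50 mM Tris-HCl pH 7.4, 10 mM MgCl2, 1 mM EDTA; nonspecific binding with 10 μM prazosin. Filter-bound radioactivity counted; values are % inhibition of specific binding or estimated Ki.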

Cc1ccc2c(c1)c1c(n2CC(C)(O)c2cccnc2)CC2CCCN2C1 (centres unmarked) [41a]
Percentage inhibition of ligand binding, Adrenergic α2B (10 nM) [1]: 24%
Percentage inhibition of ligand binding, Adrenergic α2B (30 nM) [1]: 51%
Percentage inhibition of ligand binding, Adrenergic α2B (0.1 μM) [1]: 80%
Percentage inhibition of ligand binding, Adrenergic α2A (0.1 μM) [2]: −7%
Percentage inhibition of ligand binding, Adrenergic α2A (0.3 μM) [2]: 6%
Percentage inhibition of ligand binding, Adrenergic α1B (0.1 μM) [3]: −2%
Percentage inhibition of ligand binding, Adrenergic α1B (0.3 μM) [3]: −3%

Cc1cc(F)cc2c3c(n(CC(C)(O)c4cccnc4)c12)CC1CCCN1C3 (single isomer, unassigned) [76a]
Percentage inhibition of ligand binding, Adrenergic α2B (10 nM) [1]: 12%
Percentage inhibition of ligand binding, Adrenergic α2B (30 nM) [1]: 21%
Percentage inhibition of ligand binding, Adrenergic α2B (0.1 μM) [1]: 53%
Percentage inhibition of ligand binding, Adrenergic α2A (0.1 μM) [2]: −3%
Percentage inhibition of ligand binding, Adrenergic α2A (0.3 μM) [2]: 12%
Percentage inhibition of ligand binding, Adrenergic α1B (0.1 μM) [3]: −8%
Percentage inhibition of ligand binding, Adrenergic α1B (0.3 μM) [3]: 11%

Cc1ccc2c(c1)c1c(n2CC(C)(O)c2ccc(F)cc2)CC2CCC1N2C (single isomer, unassigned) [102d]
Percentage inhibition of ligand binding, Adrenergic α2B (10 nM) [1]: −8%
Percentage inhibition of ligand binding, Adrenergic α2B (30 nM) [1]: 6%
Percentage inhibition of ligand binding, Adrenergic α2B (0.1 μM) [1]: −8%
Percentage inhibition of ligand binding, Adrenergic α2A (0.1 μM) [2]: −8%
Percentage inhibition of ligand binding, Adrenergic α2A (0.3 μM) [2]: 4%
Percentage inhibition of ligand binding, Adrenergic α1B (0.1 μM) [3]: −1%
Percentage inhibition of ligand binding, Adrenergic α1B (0.3 μM) [3]: −5%

Cc1ccc2c(c1)c1c(n2CC(C)(O)c2cnccc2F)CCN(C)C1 (centres unmarked) [compound 40, 1-(2,8-dimethyl-3,4-dihydro-1H-pyrido[4,3-b]indol-5(2H)-yl)-2-(4-fluoropyridin-3-yl)propan-2-ol]
inhibition at 0.01 µM [1]: 19%
inhibition at 0.03 µM [1]: 44%
inhibition at 0.1 µM [1]: 74%
inhibition at 0.1 µM [2]: 5%
inhibition at 0.3 µM [2]: 19%
inhibition at 0.1 µM [3]: -6%
inhibition at 0.3 µM [3]: 3%

Cc1ccc2c(c1)c1c(n2CC(O)c2cc[n+]([O-])cc2)CCN2CCCC12 (centres unmarked) [compound 22, 4-(1-hydroxy-2-(10-methyl-2,3,5,6-tetrahydro-1H-indolizino[7,8-b]indol-7 (11cH)-yl)ethyl)pyridine 1-oxide]
inhibition at 0.01 µM [1]: 30%
inhibition at 0.03 µM [1]: 61%
inhibition at 0.1 µM [1]: 72%
inhibition at 0.1 µM [2]: 7%
inhibition at 0.3 µM [2]: 15%
inhibition at 0.1 µM [3]: 11%
inhibition at 0.3 µM [3]: 30%

Cc1ccc2c(c1)c1c(n2CC(C)(O)c2ccc(C(=O)N(C)CC3CC3)nc2)CCN(C)C1 (centres unmarked) [compound 33, N-(cyclopropylmethyl)-5-(1-(2,8-dimethyl-3,4-dihydro-1H-pyrido[4,3-b]indol-5(2H)-yl)-2-hydroxypropan-2-yl)-N-methylpicolinamide]
inhibition at 0.01 µM [1]: 6%
inhibition at 0.03 µM [1]: 8%
inhibition at 0.1 µM [1]: 38%
inhibition at 0.1 µM [2]: -10%
inhibition at 0.3 µM [2]: 4%
inhibition at 0.1 µM [3]: -12%
inhibition at 0.3 µM [3]: -1%

Cc1cc(C)c2c(c1)c1c(n2CC(C)(O)c2ccncc2)CCN2CCCC12 (centres unmarked) [compound 19, 1-(8,10-dimethyl-2,3,5,6-tetrahydro-1H-indolizino[7,8-b]indol-7(11cH)-yl)-2-(pyridin-4-yl)propan-2-ol]
Percentage inhibition of ligand binding, Adrenergic α2B (10 nM) [1]: 81%
Percentage inhibition of ligand binding, Adrenergic α2B (30 nM) [1]: 95%
Percentage inhibition of ligand binding, Adrenergic α2B (0.1 μM) [1]: 100%
Percentage inhibition of ligand binding, Adrenergic α2A (0.1 μM) [2]: 59%
Percentage inhibition of ligand binding, Adrenergic α2A (0.3 μM) [2]: 79%
Percentage inhibition of ligand binding, Adrenergic α1B (0.1 μM) [3]: 77%
Percentage inhibition of ligand binding, Adrenergic α1B (0.3 μM) [3]: 91%

CC(O)(Cn1c2c(c3cc(C(F)(F)F)ccc31)C1CCCN1CC2)c1cccnc1 (single isomer, unassigned) [64b]
Percentage inhibition of ligand binding, Adrenergic α2B (10 nM) [1]: 15%
Percentage inhibition of ligand binding, Adrenergic α2B (30 nM) [1]: 47%
Percentage inhibition of ligand binding, Adrenergic α2B (0.1 μM) [1]: 76%
Percentage inhibition of ligand binding, Adrenergic α2A (0.1 μM) [2]: 10%
Percentage inhibition of ligand binding, Adrenergic α2A (0.3 μM) [2]: 37%
Percentage inhibition of ligand binding, Adrenergic α1B (0.1 μM) [3]: 4%
Percentage inhibition of ligand binding, Adrenergic α1B (0.3 μM) [3]: 27%
